The record followed here is US12478602B2, “Method for treating a disorder” (priority 2023, dated 2025).

Molecules are shown by their SMILES. Where two headings read alike, the source gives them in different places.

The subject of data set [1] is children having autism spectrum disorder. Description: Phase 2 clinical trial, effectiveness. The data set is classed as in vivo, human. The note with it: high-dose short-term administration group, 24 weeks vs 12 weeks. On the procedure:
151 children having autism spectrum disorder were subjected to a multicentered, randomly assigned, double-blinded, placebo-controlled, and therapeutically exploratory phase 2 clinical trial for exploring the effectiveness and evaluating the safety of an AST-001 syrup. An AST-001 syrup used in a clinical trial is a colorless or pale yellow clear syrup which is aromatic and has sweetness, and it comprises, as a main ingredient, 10 g of L-serine in about 100 mL of this drug and is packaged in aluminum foil at a dosage of 2 g/20 mL. The composition of the AST-001 syrup is such that the AST-001 syrup comprises L-serine as a main ingredient, sodium carboxymethyl cellulose as a thickener, methyl paraoxybenzoate and propyl paraoxybenzoate as preservatives, a citric acid hydrate and a potassium citrate hydrate as pH adjusting agents, white sugar and a D-sorbitol solution as sweetening agents, an apple mint flavor SJ-G (22005221) as a fragrance imparting agent, and purified water. […] After the extension study period of 12 weeks ended, the effectiveness and adverse events in patients were followed up and monitored for 12 weeks (that is, follow-up period). […] The K-VABS-II Adaptive Behavior Composite (K-VABS-II ABC) score, which is a primary evaluation variable, is a calculated score (standard score) for the main domain, where the higher score means the higher level of adaptive behavior.

The nature of data set [2]: Pharmacokinetic experiment in Beagle dog. The class given is in vivo. Conditions: for bioavailability / half-life: Beagle, dog, plasma; for bioavailability: po, read-out: bioavailability by the oral administration; for half-life: read-out: drug loss half-life (t1/2) (converted); for AUCinf: fasting. On the procedure: 4 g or 8 g of L-serine was orally or intravenously administered to Beagle dogs (1.8 to 2.6 years old, 8.6 to 11.6 kg, n=20). Blood collection was divided into blood collection before L-serine administration (basal blood collection) and blood collection after administration (main blood collection). During the experiment, the Beagle dogs were maintained in a fasting state, and L-serine concentration in the plasma was analyzed by LC-MS/MS.

Data set [3] has as its system mice having autism spectrum disorder. As to the kind of experiment: Spatial memory experiment (Y-maze test). The class given is in vivo, mouse. Conditions: 180, 300, 480 or 600 mg/kg orally for 28 days; with increasing dosage. Here is the method: Mice having autism spectrum disorder were created by the same method as in Example 1.1. The 3-week-old male mice having autism spectrum disorder were orally injected with 180, 300, 480, or 600 mg/kg of L-serine for 28 days and then subjected to a spatial memory test. Normal mice were used as a control group. Eight mice were used for each experimental group. The spatial working memory of the mice was evaluated through the Y-maze test. As the administration dosage of L-serine increased, the value of spontaneous alteration, which is a measure of spatial memory, increased (see FIG. 7).

Data set [4] has the same test system. As to the kind of experiment: Anxiety experiment (elevated plus maze) in mouse model of autism spectrum disorder. Conditions: 500 mg/kg orally once a day for 2 weeks; vs untreated autism spectrum disorder mouse. The class given is in vivo. The source says:
Pregnant C57BL/6 mice were subcutaneously injected with valproic acid (VPA) at the time when the gestation period reached 12 days. Male mice were selected from the mice that were born from the pregnant mice that were subcutaneously injected with VPA, and these were used as animals for a mouse model of autism spectrum disorder.
Since 3-week-old mice are at the critical stage, 3-week-old normal mice and 3-week-old mice having autism spectrum disorder were subjected to a sociality experiment, a social cognition experiment, and an anxiety experiment to identify the underlying features. 500 mg/kg of L-serine (hereinafter, referred to as AST-001) was orally administered for 2 weeks to mice having autism spectrum disorder, in which the underlying features had been confirmed. The mice having autism spectrum disorder, to which AST-001 had been orally administered for 2 weeks, were again subjected to a sociality experiment, a social cognition experiment, and an anxiety experiment.
For 2 weeks from the age of 3 weeks, the normal group and the autism spectrum disorder group were subjected to oral administration with water every day once a day, and in the drug group, mice having autism spectrum disorder were orally administered with 500 mg/kg of AST-001 (dissolved in water) once a day. […]

For data set [5], the system named is cortical layer 5 pyramidal neurons. Description: Synaptic pruning: dendritic spine density. The data set is classed as in vivo, mouse. Conditions: 400 mg/kg orally for 2 weeks. On the procedure:
A mouse model of autism spectrum disorder was created with the method described in Example 1.1. It is known that in autism spectrum disorder, the number of dendrites increases more than necessary due to troubles in synaptic pruning at the critical stage. Therefore, an experiment, which checks whether or not the number of dendrites can be normalized by AST-001 administration, was carried out. After oral administration of 400 mg/kg of AST-001 for 2 weeks to 3-week-old male autism spectrum disorder mice (n=8), it was checked whether or not the spine density of the synaptic dendrites was similar to that of the control group male normal mice (n=3). […] As a result, it was confirmed that oral administration of AST-001 normalizes synaptic pruning at the critical stage in autism spectrum disorder.

Take `N[C@@H](CO)C(=O)O` [AST-001, L-serine]: the “amount of score change in the K-VABS-II ABC and the main domain, 2DC and CGI-S” value in data set [1] was “significantly improves”. Moreover, the bioavailability in data set [2] (4 g per individual) was found to be 106%. In addition, the bioavailability in data set [2] (8 g per individual) is 84.2%. Moreover, in data set [2] (oral 4 g), the half-life is 3.8 ± 1.4 h and the AUCinf turned out to be 628 ± 108 µg·h/mL. Also, in data set [2] (oral 8 g), the half-life is 4.7 ± 1.8 h and the AUCinf is 1330 µg·h/mL. Besides, in data set [3], the spontaneous alteration result is “increased”. Also, in data set [4], the “time staying in the closed-arm space of the elevated plus maze” value is given as “short time” and the “time staying in the open-arm space of the elevated plus maze” value was “remarkably long time”. For the same compound, the “number of dendrites (spine density of the synaptic dendrites)” value in data set [5] was “significantly reduced and similar to that of the control group”.
